Source: US9937145B2, “Sulfamate derivative compound for use in preventing or treating epilepsy” (Bio-Pharm Solutions Co., Ltd., priority 2013, dated 2018)
Where two headings read alike, the source gives them in different places.

Test system: male ICR mice
Experiment: MES test (anti-epilepsy activity), mice, oral (mMES po)
Assay type: in vivo
Settings: Mus musculus; for responders at 30 mg/kg: injection amount 30 mg/kg; for responders at 50 mg/kg: injection amount 50 mg/kg; for responders at 100 mg/kg: injection amount 100 mg/kg; for responders at 80 mg/kg: injection amount 80 mg/kg; for ED50: mice, at peak time
Protocol: Biological Experimental Example. 1: Measurement of Anti-Epilepsy Activity (MES-Test)
In the MES test (Ref., G. Villetti et al. Neuropharmacology 40(2001) 866-878), an electrical stimulus (mice: 50 mA, 60 Hz, 0.2 sec, and rats: 150 mA, 60 Hz, 0.2 sec in the test animal) supplied by an 11 A Shocker (IITC Life Science Company) was delivered through corneal electrodes. All mice or rats assigned to any electroshock at peak time were treated with each test compound sample which was dissolved in 20% tween 80 prepared by saline solvent applied orally before the test. […] Three doses of the test sample were administered orally to 9-18 animals (3-6 mice per dose) for evaluating the respective doses at which 50% of the animals were protected from seizure (ED50). The ED50 value (median effective close) was calculated by Litchfield and Wicoxon log-probit method which is a dose-response relationship. Experimental animals, male ICR mice and male SD rats, were purchased from OrientBio, Samtako, or Nara Biotech, Korea, and housed in cages (4-5 mice or 3 rats per cage) for 4-5 days. The range of mice body weight was between 19 and 25 grams and range of rats body weight was between 100 and 130 grams.
The obtained results are shown as mean±sem. The difference between the groups was statistically analyzed by ANOVA, and then further examined by Dunnett's test or Bonferroni test. If p is less than 0.05, it was determined that the difference between the groups had statistical significance.
The results of anti-epileptic activity of the sulfamate derivative compounds measured in the above Experimental Example are shown in the following Tables 4 and 5.

[1] = 3 mice, read-out: mMES(po) Protection %
[2] = 4 mice, read-out: mMES(po) Protection %

`NS(=O)(=O)OC[C@@H]1OC2(CCCC2)O[C@H]1c1ccccc1Cl` [Example 10, ((2S, 3 S)-3-(2-chlorophenyl)-1,4-dioxaspiro[4,4]nonan-2-yl)methyl sulfamate] was tested, and the responders at 30 mg/kg [1] was 66%.
For `CC1(C)O[C@H](COS(N)(=O)=O)[C@@H](Cc2ccccc2Cl)O1` [Example 146, ((4R, 5R)-5-(2-chlorobenzyl)-2,2-dimethyl-1,3-dioxolan-4-yl)methyl sulfamate], the responders at 50 mg/kg [1] was 66.6%.
Work on `CC1(C)OC(COS(N)(=O)=O)C(c2cncnc2)O1` (centres unmarked) [Example 175] yielded a responders at 100 mg/kg [1] of 100%.
Work on `CC1(C)O[C@@H](COS(N)(=O)=O)[C@@H](c2ccccc2Cl)O1` [Example 162, ((4S, 5R)-5-(2-chlorophenyl)-2,2-dimethyl-1,3-dioxolan-4-yl)methyl sulfamate] yielded a responders at 100 mg/kg [1] of 100%.
`NS(=O)(=O)OC[C@@H]1OC2(CCCCC2)O[C@H]1c1ccccc1` [Example 112, ((2S, 3S)-3-phenyl-1,4-dioxaspiro[4,5]decan-2-yl)methyl sulfamate] showed a responders at 50 mg/kg [1] of 100%.
In the case of `NS(=O)(=O)OCC[C@H]1OC2(CCCC2)O[C@@H]1Cc1ccccc1Cl` [Example 142, 2-((2R, 3R)-3-(2-chlorobenzyl)-1,4-dioxaspiro[4,4]nonan-2-yl)ethyl sulfamate], the responders at 80 mg/kg [1] is reported as 33.3%.
Molecule `CCC1(CC)O[C@@H](COS(N)(=O)=O)[C@H](c2ccccc2)O1` [Example 108, ((4S, 5S)-5-phenyl-2,2-diethyl-1,3-dioxolan-4-yl)methyl sulfamate] has a responders at 50 mg/kg [1] of 100%.
`CCC1(CC)O[C@H](COS(N)(=O)=O)[C@@H](Cc2ccccc2Cl)O1` [Example 148, ((4R, 5R)-5-(2-chlorobenzyl)-2,2-diethyl-1,3-dioxolan-4-yl)methyl sulfamate] gave a responders at 50 mg/kg [1] of 33.3%.
In the case of `CCC1(CC)O[C@@H](CCOS(N)(=O)=O)[C@H](c2ccccc2)O1` [Example 132, 2-((4S, 5S)-5-phenyl-2,2-diethyl-1,3-dioxolan-4-yl)ethyl sulfamate], the responders at 80 mg/kg [1] is reported as 33.3%.
Work on `CNc1ccccc1[C@@H]1OC(C)(C)O[C@H]1COS(=O)(=O)NC` [Example 104, ((4S, 5S)-5-(2-methylaminophenyl)-2,2-dimethyl-1,3-dioxolan-4-yl)methyl methylsulfamate] yielded a responders at 50 mg/kg [1] of 66.6%.
`NS(=O)(=O)OCC[C@H]1OC2(CCCCC2)O[C@@H]1Cc1ccccc1Cl` [Example 144, 2-((2R, 3R)-3-(2-chlorobenzyl)-1,4-dioxaspiro[4,5]decan-2-yl)ethyl sulfamate] was tested, and the responders at 100 mg/kg [1] was 33.3%.
`NS(=O)(=O)OC[C@@H]1OC2(CCCCC2)O[C@H]1c1ccccc1Cl` [Example 12, ((2S, 3S)-3-(2-chlorophenyl)-1,4-dioxaspiro[4,5]decan-2-yl)methyl sulfamate] showed a responders at 50 mg/kg [2] of 100%.
In the case of `NS(=O)(=O)OC[C@H]1OC2(CCCC2)O[C@@H]1Cc1ccccc1` [Example 126, ((2R, 3R)-3-benzyl-1,4-dioxaspiro[4,4]nonan-2-yl)methyl sulfamate], the responders at 50 mg/kg [1] is reported as 100%.
`Cc1nc(Cl)sc1[C@@H]1OC(C)(C)O[C@H]1COS(N)(=O)=O` [Example 170, ((4S, 5R)-2,2-dimethyl-5-(2-chloro-4-methylthiazol-5-yl)-1,3-dioxolan-4-yl)methylsulfamate] was tested, and the responders at 100 mg/kg [1] was 100%.
Work on `CC1(C)O[C@@H](COS(N)(=O)=O)[C@H](c2ccc(Cl)cc2Cl)O1` [Example 40, ((4S, 5S)-5-(2,4-dichlorophenyl)-2,2-dimethyl-1,3-dioxolan-4-yl)methyl sulfamate] yielded an ED50 of 49.2 mg/kg.
In the case of `CC1(C)O[C@@H](CCOS(N)(=O)=O)[C@H](c2ccccc2Cl)O1` [Example 154, 2-((4S, 5S)-5-(2-chlorophenyl)-2,2-dimethyl-1,3-dioxolan-4-yl)ethyl sulfamate], the responders at 50 mg/kg [1] is reported as 100%.
Work on `NS(=O)(=O)OCC[C@@H]1OC2(CCCC2)O[C@H]1c1ccccc1Cl` [Example 158, 2-((2S, 3S)-3-(2-chlorophenyl)-1,4-dioxaspiro[4,4]nonan-2-yl)ethyl sulfamate] yielded a responders at 50 mg/kg [1] of 100%.
Work on `CCC1(CC)O[C@@H](COS(N)(=O)=O)[C@H](c2ccccc2Cl)O1` [Example 8, ((4S, 5S)-5-(2-chlorophenyl)-2,2-diethyl-1,3-dioxolan-4-yl)methyl sulfamate] yielded a responders at 50 mg/kg [2] of 100%.
With `NS(=O)(=O)OCC[C@@H]1OC2(CCCCC2)O[C@H]1c1ccccc1` [Example 136, 2-((2S, 3S)-3-phenyl-1,4-dioxaspiro[4,5]decan-2-yl)ethyl sulfamate] the responders at 50 mg/kg [1] was 100%.
For `NS(=O)(=O)OCC[C@@H]1OC2(CCCCC2)O[C@H]1c1ccccc1Cl` [Example 160, 2-((2S, 3S)-3-(2-chlorophenyl)-1,4-dioxaspiro[4,5]decan-2-yl)ethyl sulfamate], the responders at 80 mg/kg [1] was 66.6%.
Molecule `CC1(C)O[C@@H](COS(N)(=O)=O)[C@H](c2ccccc2)O1` [Example 106, ((4S, 5S)-5-phenyl-2,2-dimethyl-1,3-dioxolan-4-yl)methyl sulfamate] has a responders at 30 mg/kg [1] of 100%.
With `CC1(C)OC(COS(N)(=O)=O)C(c2cnccc2Cl)O1` (centres unmarked) [Example 174, (5-(4-chloropyridin-3-yl)-2,2-dimethyl-1,3-dioxolan-4-yl)methylsulfamate] the responders at 100 mg/kg [1] was 100%.
`Nc1ccccc1[C@@H]1OC2(CCCCC2)O[C@H]1COS(N)(=O)=O` [Example 74, ((2S, 3S)-3-(2-aminophenyl)-1,4-dioxaspiro[4,5]decan-2-yl)methyl sulfamate] showed an ED50 of 14.5 mg/kg.
Molecule `CC1(C)O[C@H](CCOS(N)(=O)=O)[C@@H](Cc2ccccc2Cl)O1` [Example 138, 2-((4R, 5R)-5-(2-chlorobenzyl)-2,2-dimethyl-1,3-dioxolan-4-yl)ethyl sulfamate] has a responders at 80 mg/kg [1] of 33.3%.
With `CC1(C)O[C@H](CCOS(N)(=O)=O)[C@@H](Cc2ccccc2)O1` [Example 114, 2-((4R, 5R)-5-benzyl-2,2-dimethyl-1,3-dioxolan-4-yl)ethyl sulfamate] the responders at 80 mg/kg [1] was 33.3%.
For `Nc1ccccc1[C@@H]1OC(c2ccccc2)O[C@H]1COS(N)(=O)=O` (stereo partly drawn) [Example 76, ((4S, 5S)-5-(2-aminophenyl)-2-phenyl-1,3-dioxolan-4-yl)methyl sulfamate], the responders at 50 mg/kg [1] was 66%.
`CC1O[C@@H](COS(N)(=O)=O)[C@H](c2ccccc2Cl)O1` (stereo partly drawn) [Example 6, ((4S, 5S)-5-(2-chlorophenyl)-2-methyl-1,3-dioxolan-4-yl)methyl sulfamate] was tested, and the responders at 50 mg/kg [1] was 33%.
Molecule `CC1(C)OC(COS(N)(=O)=O)C(c2ccncc2Cl)O1` (centres unmarked) [Example 173, (5-(3-chloropyridin-4-yl)-2,2-dimethyl-1,3-dioxolan-4-yl)methylsulfamate] has a responders at 100 mg/kg [1] of 100%.
In the case of `NS(=O)(=O)OCC[C@@H]1OC2(CCCC2)O[C@H]1c1ccccc1` [Example 134, 2-((2S, 3S)-3-phenyl-1,4-dioxaspiro[4,4]nonan-2-yl)ethyl sulfamate], the responders at 50 mg/kg [1] is reported as 100%.
Molecule `CC1(C)OC(COS(N)(=O)=O)C(c2cnc(Cl)nc2)O1` (centres unmarked) [Example 176, (2,2-dimethyl-5-(2-chloropyrimidin-5-yl)-1,3-dioxolan-4-yl)methylsulfamate] has a responders at 100 mg/kg [1] of 100%.
`NS(=O)(=O)OC[C@H]1OC2(CCCCC2)O[C@@H]1Cc1ccccc1Cl` [Example 152, ((2R, 3R)-3-(2-chlorobenzyl)-1,4-dioxaspiro[4,5]decan-2-yl)methyl sulfamate] showed a responders at 50 mg/kg [1] of 66.6%.
Work on `CC1(C)O[C@H](COS(N)(=O)=O)[C@@H](Cc2ccccc2)O1` [Example 122, ((4R, 5R)-5-benzyl-2,2-dimethyl-1,3-dioxolan-4-yl)methyl sulfamate] yielded a responders at 50 mg/kg [1] of 100%.
`NS(=O)(=O)OC[C@H]1OC2(CCCC2)O[C@@H]1Cc1ccccc1Cl` [Example 150, ((2R, 3R)-3-(2-chlorobenzyl)-1,4-dioxaspiro[4,4]nonan-2-yl)methyl sulfamate] showed a responders at 50 mg/kg [1] of 100%.
With `CC1(C)O[C@@H](COS(N)(=O)=O)[C@H](c2ccsc2)O1` [Example 171, ((4S, 5S)-2,2-dimethyl-5-(thiophen-3-yl)-1,3-dioxolan-4-yl)methylsulfamate] the ED50 was 43.3 mg/kg.
`CC1(C)O[C@H](COS(N)(=O)=O)[C@H](c2ccccc2Cl)O1` [Example 161, ((4R, 5S)-5-(2-chlorophenyl)-2,2-dimethyl-1,3-dioxolan-4-yl)methyl sulfamate] was tested, and the responders at 100 mg/kg [1] was 100%.
Work on `NS(=O)(=O)OC[C@@H]1OC2(CCCC2)O[C@H]1c1ccccc1` [Example 110, ((2S, 3S)-3-phenyl-1,4-dioxaspiro[4,4]nonan-2-yl)methyl sulfamate] yielded a responders at 9 mg/kg (injection amount 9 mg/kg, 3 mice, read-out: mMES(po) Protection %) of 33.3%.
`NS(=O)(=O)OC[C@H]1OC2(CCCCC2)O[C@@H]1Cc1ccccc1` [Example 128, ((2R, 3R)-3-benzyl-1,4-dioxaspiro[4,5]decan-2-yl)methyl sulfamate] gave a responders at 50 mg/kg [1] of 100%.
In the case of `CC1(C)O[C@H](c2cnc(Cl)s2)[C@@H](COS(N)(=O)=O)O1` [Example 165, ((4R, 5S)-5-(2-chlorothiazol-5-yl)-2,2-dimethyl-1,3-dioxolan-4-yl)methylsulfamate], the responders at 100 mg/kg [1] is reported as 100%.
